Experimental data from US20250179088A9 (ZYMEWORKS BC INC., priority 2020, published 2025).

Columns and labels:
PBMCs = experiment: PBMC assay, IL-6 release (HTRF); type: cell-based; details: PBMCs from healthy donors, overnight, IL-6 induction by HTRF, average of quadruplicate
Protocol: Whole peripheral blood was obtained from healthy donors. PBMCs were isolated from peripheral blood by density gradient centrifugation. […] The plasma layer containing PBMCs was poured into a new tube and washed twice. Isolated PBMCs were either used fresh or thawed from previously frozen. 1×10^5 PBMCs were cultured with titrating concentrations of compounds of Formula I overnight followed by assaying for cytokines by homogeneous time resolved fluorescence (HTRF).

TLR8 = molecular target: T1, TLR8 (Homo sapiens, UniProt Q9NR97); experiment: Reporter gene assay, HEK-Blue TLR8 reporter cells (SEAP)
T1 sequence (Q9NR97 27-1041): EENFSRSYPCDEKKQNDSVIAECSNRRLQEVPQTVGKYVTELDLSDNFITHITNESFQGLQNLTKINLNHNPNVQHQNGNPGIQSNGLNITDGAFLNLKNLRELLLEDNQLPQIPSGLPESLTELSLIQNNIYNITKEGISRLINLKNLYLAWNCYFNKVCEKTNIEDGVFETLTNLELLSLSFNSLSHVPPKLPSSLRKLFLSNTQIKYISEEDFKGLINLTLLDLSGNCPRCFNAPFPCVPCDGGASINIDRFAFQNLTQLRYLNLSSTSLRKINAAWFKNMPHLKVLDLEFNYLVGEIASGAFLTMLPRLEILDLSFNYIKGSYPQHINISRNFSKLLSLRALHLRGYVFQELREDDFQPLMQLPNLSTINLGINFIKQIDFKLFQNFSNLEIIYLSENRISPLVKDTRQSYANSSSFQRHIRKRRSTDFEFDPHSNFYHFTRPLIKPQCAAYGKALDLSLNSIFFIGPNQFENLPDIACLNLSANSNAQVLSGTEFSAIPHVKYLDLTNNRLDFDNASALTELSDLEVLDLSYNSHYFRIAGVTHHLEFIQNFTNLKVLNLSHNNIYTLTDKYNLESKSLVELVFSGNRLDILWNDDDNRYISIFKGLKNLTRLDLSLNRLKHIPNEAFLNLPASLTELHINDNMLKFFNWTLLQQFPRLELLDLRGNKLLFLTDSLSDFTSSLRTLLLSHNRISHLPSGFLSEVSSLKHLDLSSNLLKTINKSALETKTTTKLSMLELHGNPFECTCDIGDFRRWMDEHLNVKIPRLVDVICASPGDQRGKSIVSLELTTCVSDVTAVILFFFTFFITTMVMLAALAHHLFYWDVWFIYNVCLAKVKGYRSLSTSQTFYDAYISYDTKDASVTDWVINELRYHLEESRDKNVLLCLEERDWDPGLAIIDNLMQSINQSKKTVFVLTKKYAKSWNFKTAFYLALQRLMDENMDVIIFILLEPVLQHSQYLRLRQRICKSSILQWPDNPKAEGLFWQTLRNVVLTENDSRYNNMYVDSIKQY
Protocol: (§1) 3×10^4 HEK-Blue™ TLR7 or 3×10^4 TLR8 reporter cells (InvivoGen, San Diego, CA) were treated with titrated (4-fold) amounts of test compound. […] Cells were incubated overnight at 37° C. and 5% CO2, then absorbance (620 and 655 nm) was read on a Synergy™ H1 microplate reader.

TLR7 = molecular target: T2, TLR7 (Homo sapiens, UniProt Q9NYK1); experiment: Reporter gene assay, HEK-Blue TLR7 reporter cells (SEAP)
T2 sequence (Q9NYK1 27-1049): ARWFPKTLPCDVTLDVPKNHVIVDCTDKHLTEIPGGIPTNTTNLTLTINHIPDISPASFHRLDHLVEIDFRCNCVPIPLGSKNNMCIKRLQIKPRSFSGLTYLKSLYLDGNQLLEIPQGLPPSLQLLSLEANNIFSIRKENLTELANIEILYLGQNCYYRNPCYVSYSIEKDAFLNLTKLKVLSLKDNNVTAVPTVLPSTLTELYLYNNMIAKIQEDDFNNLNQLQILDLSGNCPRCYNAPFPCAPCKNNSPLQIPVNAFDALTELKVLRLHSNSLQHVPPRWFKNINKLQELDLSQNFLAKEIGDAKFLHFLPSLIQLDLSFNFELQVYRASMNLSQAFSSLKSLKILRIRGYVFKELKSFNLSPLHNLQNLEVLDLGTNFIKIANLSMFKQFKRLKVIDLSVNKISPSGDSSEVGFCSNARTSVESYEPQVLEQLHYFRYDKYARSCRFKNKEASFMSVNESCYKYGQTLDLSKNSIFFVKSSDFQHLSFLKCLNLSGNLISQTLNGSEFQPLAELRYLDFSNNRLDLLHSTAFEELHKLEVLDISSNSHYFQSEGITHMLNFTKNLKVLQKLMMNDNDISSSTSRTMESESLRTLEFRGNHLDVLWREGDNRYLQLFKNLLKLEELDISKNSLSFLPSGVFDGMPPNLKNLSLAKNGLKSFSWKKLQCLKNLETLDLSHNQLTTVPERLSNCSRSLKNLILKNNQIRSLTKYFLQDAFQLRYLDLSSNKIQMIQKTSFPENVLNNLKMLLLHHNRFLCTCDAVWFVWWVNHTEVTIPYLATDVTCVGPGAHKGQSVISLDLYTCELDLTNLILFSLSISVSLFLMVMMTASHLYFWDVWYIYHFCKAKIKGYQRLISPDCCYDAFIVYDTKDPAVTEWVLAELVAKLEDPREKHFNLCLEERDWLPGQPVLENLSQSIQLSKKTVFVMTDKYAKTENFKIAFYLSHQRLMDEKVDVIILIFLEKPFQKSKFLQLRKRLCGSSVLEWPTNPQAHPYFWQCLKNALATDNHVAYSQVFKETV
Protocol: as §1

Which results are given for `CCCCc1nc2c(N)nc3ccsc3c2n1Cc1ccc(CN2CCCCC2)cc1` [Compound 151, 2-butyl-1-(4-(piperidin-1-ylmethyl)benzyl)-1H-imidazo[4,5-d]thieno[3,2-b]pyridin-4-amine]?
EC50 (PBMCs): 20 nM; EC50 (TLR8): > 1000 nM; EC50 (TLR7): 3.8 nM

How did the EC50 (PBMCs) turn out when `CCCCc1nc2c(N)nc3ccsc3c2n1Cc1ccc(CN(CCN(CCCC)CCCC)CCN(CCCC)CCCC)cc1` [Compound 152, N^1-(4-((4-amino-2-butyl-1H-imidazo[4,5-d]thieno[3,2-b]pyridin-1-yl)methyl)benzyl)-N^2,N^2-dibutyl-N^1-(2-(dibutylamino)ethyl)ethane-1,2-diamine] was run?
Its EC50 is 59 nM.

What about the EC50 (TLR8) of the same compound?
The EC50 was > 1000 nM.

What about the EC50 (TLR7) of the same compound?
The EC50 was 67 nM.

`CCCCc1nc2c(N)nc3ccsc3c2n1Cc1ccc(CN2CCN(C(=O)OC(C)(C)C)CC2)cc1` [Compound 153, tert-butyl 4-(4-((4-amino-2-butyl-1H-imidazo[4,5-d]thieno[3,2-b]pyridin-1-yl)methyl)benzyl)piperazine-1-carboxylate] was tested. Which EC50 (PBMCs) did it give?
Its EC50 is 420 nM.

And the EC50 (TLR8)?
Its EC50 is > 1000 nM.

What about the EC50 (TLR7) of the same compound?
Its EC50 is 85 nM.

Which EC50 (TLR8) does the source give for `CCCCc1nc2c(N)nc3ccsc3c2n1Cc1ccc(CNc2nnc[nH]2)cc1` [Compound 272, 1-(4-(((4H-1,2,4-triazol-3-yl)amino)methyl)benzyl)-2-butyl-1H-imidazo[4,5-d]thieno [3,2-b]pyridin-4-amine] here?
Its EC50 is > 1000 nM.

What about the EC50 (TLR7) of the same compound?
The EC50 was 33 nM.

Which results are given for `CCCCc1nc2c(N)nc3ccsc3c2n1Cc1ccc(CN2CCN(CCc3ccccn3)CC2)cc1` [Compound 275, 2-butyl-1-(4-((4-(2-(pyridin-2-yl)ethyl)piperazin-1-yl)methyl)benzyl)-1H-imidazo[4,5-d]thieno[3,2-b]pyridin-4-amine]?
EC50 (TLR8): > 1000 nM; EC50 (TLR7): > 1000 nM

What does the source list for `CCCCc1nc2c(N)nc3ccsc3c2n1Cc1ccc(CN(CCC)CCC)cc1` [Compound 277, 2-butyl-1-(4-((dipropylamino)methyl)benzyl)-1H-imidazo[4,5-d]thieno[3,2-b]pyridin-4-amine]?
EC50 (TLR8): 404 nM; EC50 (TLR7): < 1 nM

How did the EC50 (TLR8) turn out when `CCCCc1nc2c(N)nc3ccsc3c2n1Cc1ccc(C[n+]2ccccc2)cc1` [Compound 279, 1-(4-((4-amino-2-butyl-1H-imidazo[4,5-d]thieno[3,2-b]pyridin-1-yl)methyl)benzyl) pyridin-1-ium] was run?
Its EC50 is > 1000 nM.

And the EC50 (TLR7)?
The EC50 was < 1 nM.

What does the source list for `CCOCc1nc2c(N)nc3ccsc3c2n1Cc1ccc(CN2CCNCC2)cc1` [Compound 289, 2-(ethoxymethyl)-1-(4-(piperazin-1-ylmethyl)benzyl)-1H-imidazo[4,5-d]thieno[3,2-b]pyridin-4-amine]?
EC50 (TLR8): > 1000 nM; EC50 (TLR7): 9 nM

`CCOCc1nc2c(N)nc3ccsc3c2n1Cc1ccc(CN(CC)CC)cc1` [Compound 290, 1-(4-((diethylamino)methyl)benzyl)-2-(ethoxymethyl)-1H-imidazo[4,5-d]thieno[3,2-b]pyridin-4-amine] was tested. Which EC50 (TLR8) did it give?
The EC50 was 1030 nM.

And the EC50 (TLR7)?
Its EC50 is 4 nM.

How did the EC50 (TLR8) turn out when `CCOCc1nc2c(N)nc3ccsc3c2n1Cc1ccc(CNC2CC(F)(F)C2)cc1` [Compound 291, 1-(4-(((3,3-difluorocyclobutyl)amino)methyl)benzyl)-2-(ethoxymethyl)-1H-imidazo[4,5-d]thieno[3,2-b]pyridin-4-amine] was run?
The EC50 was 1130 nM.

And the EC50 (TLR7)?
The EC50 was 14 nM.

What does the source list for `CCOCc1nc2c(N)nc3ccsc3c2n1Cc1ccc(CN[C@H](CO)[C@@H](C)CC)cc1` [Compound 292, (2S,3S)-2-((4-((4-amino-2-(ethoxymethyl)-1H-imidazo[4,5-d]thieno[3,2-b]pyridin-1-yl)methyl)benzyl)amino)-3-methylpentan-1-ol]?
EC50 (TLR8): 674 nM; EC50 (TLR7): 3 nM

Which results are given for `CCOCc1nc2c(N)nc3ccsc3c2n1Cc1ccc(CNCc2cc[nH]c2)cc1` [Compound 293, 1-(4-((((1H-pyrrol-3-yl)methyl)amino)methyl)benzyl)-2-(ethoxymethyl)-1H-imidazo [4,5-d]thieno[3,2-b]pyridin-4-amine]?
EC50 (TLR8): > 1000 nM; EC50 (TLR7): 7 nM

For `CCCCc1nc2c(N)nc3ccsc3c2n1Cc1ccc(C[N+]23CCN(CC2)CC3)cc1` [Compound 295, 1-(4-((4-amino-2-butyl-1H-imidazo[4,5-d]thieno[3,2-b]pyridin-1-yl)methyl)benzyl)-1,4-diazabicyclo[2.2.2]octan-1-ium], which EC50 (TLR8) is on record?
Its EC50 is > 1000 nM.

And the EC50 (TLR7)?
The EC50 was > 1000 nM.

What does the source list for `CCCCc1nc2c(N)nc3ccsc3c2n1Cc1ccc(CN[C@H](CO)[C@@H](C)CC)cc1` [Compound 296, (2S,3S)-2-((4-((4-amino-2-butyl-1H-imidazo[4,5-d]thieno[3,2-b]pyridin-1-yl)methyl)benzyl)amino)-3-methylpentan-1-ol]?
EC50 (TLR8): 134 nM; EC50 (TLR7): < 1 nM

Which results are given for `CCCCc1nc2c(N)nc3ccsc3c2n1Cc1ccc(CN[C@H](C(=O)O)[C@@H](C)CC)cc1` [Compound 297, (4-((4-amino-2-butyl-1H-imidazo[4,5-d]thieno[3,2-b]pyridin-1-yl)methyl)benzyl)-L-isoleucine]?
EC50 (TLR8): > 1000 nM; EC50 (TLR7): 676 nM

`CCCCc1nc2c(N)nc3ccsc3c2n1Cc1ccc(CN[C@H](C(=O)O)[C@@H](C)O)cc1` [Compound 298, (4-((4-amino-2-butyl-1H-imidazo[4,5-d]thieno[3,2-b]pyridin-1-yl)methyl)benzyl)-L-threonine] was tested. Which EC50 (TLR8) did it give?
Its EC50 is > 1000 nM.

What about the EC50 (TLR7) of the same compound?
The EC50 was 159 nM.

How did the EC50 (TLR8) turn out when `CCCCc1nc2c(N)nc3ccsc3c2n1Cc1ccc(CN(CC(=O)O)CC(=O)O)cc1` [Compound 299, 2,2′-((4-((4-amino-2-butyl-1H-imidazo[4,5-d]thieno[3,2-b]pyridin-1-yl)methyl)benzyl)azanediyl)diacetic acid] was run?
The EC50 was > 1000 nM.

And the EC50 (TLR7)?
Its EC50 is 446 nM.

Which results are given for `CCCCc1nc2c(N)nc3ccsc3c2n1Cc1ccc(CN2CCC[C@H]2C(=O)O)cc1` [Compound 300, (4-((4-amino-2-butyl-1H-imidazo[4,5-d]thieno[3,2-b]pyridin-1-yl)methyl)benzyl)-L-proline]?
EC50 (TLR8): > 1000 nM; EC50 (TLR7): > 1000 nM

For `CCCCc1nc2c(N)nc3ccsc3c2n1Cc1ccc(CNCCC(=O)N[C@@H](Cc2cnc[nH]2)C(=O)O)cc1` [Compound 301, (3-((4-((4-amino-2-butyl-1H-imidazo[4,5-d]thieno[3,2-b]pyridin-1-yl)methyl)benzyl)amino)propanoyl)-L-histidine], which EC50 (TLR8) is on record?
The EC50 was > 1000 nM.

What about the EC50 (TLR7) of the same compound?
Its EC50 is 348 nM.

How did the EC50 (TLR8) turn out when `CCCCc1nc2c(N)nc3ccsc3c2n1Cc1ccc(CNCCCC[C@H](N)C(=O)O)cc1` [Compound 305, N^6-(4-((4-amino-2-butyl-1H-imidazo[4,5-d]thieno[3,2-b]pyridin-1-yl)methyl)benzyl)-L-lysine] was run?
Its EC50 is > 1000 nM.

What about the EC50 (TLR7) of the same compound?
The EC50 was 108 nM.
